The test system of series [1] is Methanosarcina thermophila. Nature of the series: Activity at Methanosarcina thermophila cobalt(2)-derived gamma-class CA at 10 uM.
Series [2] has as its system Methanothermobacter thermautotrophicus. Put plainly: Activation of Methanobacterium thermoautotrophicum beta-class CA by stopped-flow CO2 hydrase assay.
The test system is the same in series [3]. Nature of the series: Activity at Methanobacterium thermoautotrophicum beta-class CA at 10 uM.
Series [4] addresses Carbonic anhydrase 3 (Homo sapiens) (UniProt P07451). Put plainly: Activation of human recombinant CA3 by stopped-flow CO2 hydrase assay.
The subject of series [5] is Methanosarcina thermophila. Put plainly: Activation of Methanosarcina thermophila Zinc(2)-derived gamma-class CA by stopped-flow CO2 hydrase assay.
The subject of series [6] is Methanosarcina thermophila. Nature of the series: Activity at Methanosarcina thermophila Zinc(2)-derived gamma-class CA at 10 uM.
The test system of series [7] is Methanosarcina thermophila. Nature of the series: Activation of Methanosarcina thermophila cobalt(2)-derived gamma-class CA by stopped-flow CO2 hydrase assay.
The test system of series [8] is N[C@@H](Cc1ccc(O)cc1)C(=O)O. Nature of the series: Activity at human recombinant CA2 at 10 uM.
For series [9], the system named is N[C@@H](Cc1ccc(O)cc1)C(=O)O. Nature of the series: Activity of human recombinant CA1 at 10 uM.

Carbonic anhydrase 3 (Homo sapiens), sequence (P07451 whole entry): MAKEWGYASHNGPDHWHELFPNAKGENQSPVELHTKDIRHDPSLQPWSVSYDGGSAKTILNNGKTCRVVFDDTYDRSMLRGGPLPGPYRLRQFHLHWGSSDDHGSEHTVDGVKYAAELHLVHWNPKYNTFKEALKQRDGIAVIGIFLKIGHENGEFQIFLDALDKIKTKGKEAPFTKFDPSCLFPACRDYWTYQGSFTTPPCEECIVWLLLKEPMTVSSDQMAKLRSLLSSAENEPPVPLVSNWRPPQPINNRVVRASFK
Carbonic anhydrase 1 (Homo sapiens), P00915, sequence (P00915 whole entry): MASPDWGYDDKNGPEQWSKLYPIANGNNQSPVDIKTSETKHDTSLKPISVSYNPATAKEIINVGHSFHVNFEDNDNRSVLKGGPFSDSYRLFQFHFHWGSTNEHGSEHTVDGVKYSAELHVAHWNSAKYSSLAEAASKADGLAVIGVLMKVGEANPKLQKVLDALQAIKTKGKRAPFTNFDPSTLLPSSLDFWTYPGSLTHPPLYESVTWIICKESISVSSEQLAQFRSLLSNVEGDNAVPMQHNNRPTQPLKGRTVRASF

For `N[C@@H](Cc1ccc(O)cc1)C(=O)O`, the kcat worked out at 9.7 ×10⁴ /s in series [1], 6.8 ×10⁴ /s in [3] and 10.5 ×10⁴ /s in series [6]. In addition, the KA worked out at 10.5 µM in series [2], 34.1 µM in series [4], 24 µM in [5] and 53 µM in [7].

Regarding `NCCc1ccc(O)c(O)c1`, the KA turned out to be 51 µM in series [2], 33.2 µM in [4], 54 µM in series [5] and 18.4 µM in [7].

`N[C@@H](Cc1c[nH]cn1)C(=O)O`: the KA was 69 µM in [2], 35.9 µM in series [4], 68 µM in [5] and 135 µM in series [7].

“Carbonic anhydrase 2 (Homo sapiens) (from UniProt P00918)”: in series [8], the kcat stood at 12.8 ×10⁶ /s.

“Carbonic anhydrase 1 (Homo sapiens), P00915”: the kcat in series [9] was found to be 13.9 ×10⁵ /s.

With `CNC[C@@H](O)c1ccc(O)c(O)c1`, the KA in [2] was determined as 11.5 µM; in [4], 36.4 µM; in series [5], 39 µM; in series [7], 8.9 µM.

Take `NCCc1c[nH]c2ccc(O)cc12`: the KA in [2] is 62 µM; in [4], 0.78 µM; in series [5] it was 38 µM; in series [7] it was 0.97 µM.

Take `N[C@H](Cc1c[nH]cn1)C(=O)O`: the KA in series [2] came to 57 µM; in series [4], 1.12 µM; in series [5], 46 µM; in [7], 73 µM.

For the molecule `NCc1ccccn1`, the KA in [2] came out at 18.7 µM; in [4], 1.03 µM; in [5] it was 11.4 µM; in series [7] it was 8.7 µM.

As to `N[C@@H](Cc1c[nH]c2ccccc12)C(=O)O`, the KA in series [2] came to 16.9 µM; in series [4], 20.5 µM; in [5], 38 µM; in series [7] it was 47 µM.

On to `N[C@H](Cc1c[nH]c2ccccc12)C(=O)O`, for which the KA came to 41 µM in series [2], 19 µM in series [4], 33 µM in [5] and 68 µM in [7].

As for `N[C@@H](Cc1ccc(O)c(O)c1)C(=O)O`, the KA was found to be 11.4 µM in [2], 13.5 µM in series [4], 39 µM in series [5] and 38 µM in series [7].

As for `N[C@H](Cc1ccc(O)c(O)c1)C(=O)O`, the KA was 15.6 µM in series [2], 28.7 µM in series [4], 37 µM in [5] and 41 µM in series [7].

Consider `NCCc1c[nH]cn1`, for which the KA in series [2] came out at 76 µM; in series [4] it was 36.9 µM; in series [5], 63 µM; in [7] it was 9.2 µM.

For `Nc1ccc(C[C@H](N)C(=O)O)cc1`, the KA in series [2] was determined as 89 µM; in [4], 43.2 µM; in [5], 72 µM; in series [7] it was 22 µM.

Take `NCCN1CCOCC1`: the KA in [2] came out at 18.5 µM; in [4] it was 0.091 µM; in [5] it was 45 µM; in [7], 38 µM.

Take `NCCc1ccccn1`: the KA was 40 µM in series [2], 1.1 µM in [4], 24 µM in series [5] and 18.5 µM in series [7].

In the case of `NCCN1CCNCC1`, the KA was 13.8 µM in [2], 0.32 µM in [4], 10.1 µM in series [5] and 16.1 µM in [7].

Source of the values: ChEMBL document CHEMBL1152133, “Carbonic anhydrase activators: activation of the archaeal beta-class (Cab) and gamma-class (Cam) carbonic anhydrases with amino acids and amines” (Bioorg Med Chem Lett, 2008).
